Series [1] has as its system KCL22-IR. Put plainly: Cellular proliferation assay. It counts as cell-based. The conditions noted are these: 72 h.
Series [2] has as its system K562. Put plainly: Cellular proliferation assay. It counts as cell-based. The conditions noted are these: read-out: IC50 (mean ±SD) K562.
In series [3] the test system is KCL22. Put plainly: Cellular proliferation assay. It counts as cell-based. Particulars: read-out: IC50 (mean ±SD) KCL22.
For series [4] the following is noted: cited from earlier work.
For series [5], the target named is ABL1(T315I) (Homo sapiens, UniProt P00519+P11274, T315I). Put plainly: Cellular ABL1 kinase phosphorylation assay in KCL22-IR. Particulars: read-out: IC50 (mean ±SD) cellular ABL1 activity, KCL22-IR; 2 hours incubation, KCL22-T315I cells.
For series [6], the target named is T1, ABL1 (Homo sapiens, UniProt P00519).
T1 sequence (P00519 242-493 limits assumed): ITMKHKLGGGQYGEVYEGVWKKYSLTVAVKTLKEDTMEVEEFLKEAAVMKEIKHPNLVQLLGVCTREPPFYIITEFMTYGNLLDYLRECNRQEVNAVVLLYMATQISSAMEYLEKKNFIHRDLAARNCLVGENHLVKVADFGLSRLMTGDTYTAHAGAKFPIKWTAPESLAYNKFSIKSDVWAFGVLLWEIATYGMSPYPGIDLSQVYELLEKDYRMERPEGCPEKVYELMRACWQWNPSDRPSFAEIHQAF
Put plainly: Enzymatic inhibition of ABL1 wild type. In kind it is biochemical. The conditions noted are these: read-out: IC50 ABL1 wild type; enzyme, Figure 8A.

Series [7] deals with T2, ABL1(T315I) (Homo sapiens, UniProt P00519, T315I).
T2 sequence (P00519 242-493 T315I limits assumed): T1 sequence (P00519 242-493 limits assumed) with T74I
Put plainly: Enzymatic inhibition of ABL1. It counts as biochemical. The conditions noted are these: read-out: IC50 ABL1(T315I); enzyme, Figure 8B.

[8] abbreviates: read-out: IC50 (mean ±SD) KCL22-IR, anti-proliferation, T315I mutation.

Molecules are shown by their SMILES. Where a chain is given by its changes, count along the chain named. Where two headings read alike, the source gives them in different places.

As for `Cc1ccc(NC(=O)c2ccc(CN3CCN(C)CC3)cc2)cc1Nc1nccc(-c2cccnc2)n1` [Imatinib, reference compound], the IC50 in series [1] (read-out: IC50 KCL22-IR (bound cells)) is above 1000 nM.

As to `Cc1ccc(C(=O)Nc2ccc(CN3CCN(C)CC3)c(C(F)(F)F)c2)cc1C#Cc1cnc(N)c2ncccc12` [Compound 9], the IC50 in series [2] (anti-proliferation, 72 h) was found to be 1.85 ± 0.03 nM; in series [1] (setting [8]), 0.74 ± 0.004 nM; in series [3] (anti-proliferation, 72 h), 0.18 ± 0.004 nM.

As to `Cc1ccc(C(=O)Nc2ccc(CN3CCN(C)CC3)c(C(F)(F)F)c2)cc1C#Cc1cnc2cccnn12` [Ponatinib, reference compound], the “patients reporting serious and non-serious thrombotic events” value in series [4] (cardiovascular, cerebrovascular, peripheral vascular events) is 17.1%. In addition, in series [4] (study n=499), the “deaths linked to the use of the drug” value is “Five”. For the same molecule, the IC50 came to 0.6003 ± 0.0023 nM in series [2] (Homo sapiens, K562, 72 h); 0.66 ± 0.005 nM in series [1] (read-out: IC50 (mean ±SD) KCL22-IR); 0.142 ± 0.003 nM in series [3] (Homo sapiens, KCL-22, 72 h).

For the molecule `CN1CCN(Cc2ccc(NC(=O)c3cncc(C#Cc4cnc(N)c5ncccc45)c3)cc2C(F)(F)F)CC1` [Compound 16], the IC50 in series [5] was 26 ± 1.1 nM; in series [6], below 5 nM; in series [7] it was 40.7 nM; in series [2] (anti-proliferation, 72 h), 0.765 ± 0.005 nM; in series [1] (setting [8]), 4.14 ± 0.11 nM; in series [3] (anti-proliferation, 72 h), 1.02 ± 0.04 nM.

On to `CN1CCN(Cc2ccc(NC(=O)c3cncc(C#Cc4c(N)ncc5ccc(F)cc45)c3)cc2C(F)(F)F)CC1` [Compound 29], for which the IC50 in series [5] was 36.4 ± 1.1 nM; in series [6], below 5 nM; in series [7], 32.8 nM; in series [2] (anti-proliferation, 72 h), 0.688 ± 0.003 nM; in series [1] (setting [8]) it was 4.1 ± 0.03 nM; in series [3] (anti-proliferation, 72 h) it was 0.444 ± 0.008 nM.

As to `Cc1ncc(C(=O)Nc2ccc(CN3CCN(C)CC3)c(C(F)(F)F)c2)cc1C#Cc1cnc(N)c2ncccc12` [Compound 15], the IC50 in series [5] was 18.9 ± 1.1 nM; in series [6], below 5 nM; in series [7], 4.7 nM; in series [2] (anti-proliferation, 72 h), 1.75 ± 0.04 nM; in series [1] (setting [8]), 2.67 ± 0.07 nM; in series [3] (anti-proliferation, 72 h), 0.303 ± 0.002 nM.

Source of the values: publication PMC6312196 (ChemMedChem, 2018).
